Patent US20250319139A1, “METHODS FOR TREATING NEUROINFLAMMATION” (University of Virginia Patent Foundation, priority 2021, published 2025)

What was measured:
Assay type in all cases: in vivo, mouse
[1] = system: dendritic branches and spines of hippocampal neurons; assay: Golgi staining, dendritic arborization; conditions: young adult mice with exercise and surgery; intraperitoneal valeric acid
Experimental: Golgi staining was performed using FD Rapid GolgiStain™ Kit. Nineteen days after surgery, brains of 6 mice in each group were immersed in the impregnation solution (solutions A and B: 1:1) for 2 weeks and then transferred to solution C for 3 days. Coronal brain sections at a thickness of 100 μm and around-2.7 mm from bregma were cut on a vibratome (Microslicer® 10110, Ted Pella, Inc. California, USA). As described before, more than 10 well individualized neurons in the dentate gyrus (DG) region of the hippocampus were randomly selected from each mouse, and sequential optical multiple-layers scanning images were taken at an interval 2.0 μm along the z-axis (3DHISTECH, Pannoramic MIDI, Hungary) with 20× objective. The multiple-layer scanning files were superposed to become one clear scanning file that can be viewed with Caseviewer (3DHISTECH, Hungary) on a computer. The total branch number and dendritic length were measured by Fiji software (Fiji-win64, NIH, USA). The complexity of total dendritic trees (intersections) was estimated using Sholl analysis. For spine density measurement, 5 neurons were selected from each animal. […] The spine numbers in 40 μm segments were counted by an observer who was blind to group assignment. The results were expressed as the number of spines/10 μm segments. […]

C57BL/6J mice [2] = assay: Novel object recognition test, young adult mice
C57BL/6J mice [3] = assay: Barnes maze test, old mice; conditions: old mice with exercise and surgery; intraperitoneal valeric acid once a week vs normal saline
From the text: After one-week acclimation, old mice (18-month old male C57BL/6J mice) weighing 30-36 g were used in three studies. In the first experiment, old mice were randomly assigned to: 1) control group, 2) exercise group in which mice had 4-week exercise at 35-40% maximal capacity, 3) surgery group, and 4) Exe+Sur group in which mice had 4-week exercise at 35-40% maximal capacity before surgery. The animals were used for learning and memory tests starting 4 days after the surgery (n=12) or their brains were harvested for biochemical assays at 48 h after the surgery (n=10 or 12), for immunofluorescent staining at 48 h and 19 days after the surgery (n=6), and for Golgi staining at 19 days after the surgery (n=8). Blood and feces from mice of the 4 groups were harvested for SCFA measurement at 7 days after the surgery (n=7) and for 16S analyses at 3 and 7 days after the surgery (n=8) or at the end of 4-week exercise protocol or at the corresponding time in the first 2 groups (n=16). Mice for tissue harvesting were different cohorts that were used for learning and memory tests. In second experiment, old mice were randomly assigned to: 1) Trans-Old Control+Sur group, and 2) Trans-Old Exe+Sur group. […] Learning and memory were evaluated from 4 days after surgery (n=10). […] The latency to enter the target box during each trial was recorded by an ANY-Maze video tracking system (SD Instruments).

C3 = C3 in the hippocampus by ELISA
Experimental: IL-1β, IL-6, C3 and GDNF in the hippocampus were detected by using ELISA kits. For testing the IL-1β, IL-6 and GDNF, brain tissues were homogenized on ice in the RIPA buffer containing 25 mM Tris-HCl with pH 7.6, 150 mM NaCl, 1% sodium deoxycholate, 0.1% SDS and a protease inhibitor cocktail containing 10 mg/ml aproteinin, 5 mg/ml peptastin, 5 mg/ml leupetin and 1 mM phenylmethane sulfonylfluoride. For C3 testing, brain tissues were homogenized on ice in the PTR buffer (supplied in the kit). The supernatant was collected for ELISA detection after the homogenate was centrifuged at 13,000 g for 20 min at 4° C. and the protein concentration was determined by the BCA protein assay (Bio-Rad, Hemel Hempstead, Herts, UK). IL-1β, IL-6, C3 and GDNF in supernatant of brain were detected according to the manufacturer's instruction for ELISA, and the amount of them in each sample in the brain was normalized by its total protein content and was expressed as pg/mg protein.

IL-17 = assay: ELISA of IL-17 in the brain
Experimental: Mice were weighed and anesthetized with isoflurane at 24 h after MCAO. Blood samples were obtained from the right heart after thoracotomy. Blood was centrifuged (13,000 g, 4° C.) after it had been placed at 4° C. for 2 h for the collection of serum. After the collection of blood, mice were perfused with 4° C. saline for brain tissue harvesting. The cerebral cortex (anteroposterior: −1.5 to 2.5 mm, mediolateral: 1.0 to 3.0 mm) was dissected out. All dissection procedures were performed on ice.
IL-10, IL-17, IL-1β and IL-6 in the serum and brain were detected by using ELISA kits (catalog number: M1000B, M1700, MLB00C and D6050, R&D SYSTEM, Inc., Minneapolis, MN, USA) as we described before. The brain tissues were homogenized on ice in the RIPA buffer containing 25 mM Tris-HCl with pH 7.6, 150 mM NaCl, 1% sodium deoxycholate and 0.1% SDS (catalog number: 89901, Thermo Scientific, Rockford, IL, USA) and a protease inhibitor cocktail containing 10 mg/ml aproteinin, 5 mg/ml peptastin, 5 mg/ml leupetin and 1 mM phenylmethane sulfonylfluoride (catalog number: SRE0055, Sigma-Aldrich, St. Louis, MO, USA). The supernatant was collected for ELISA detection after being centrifuged for 20 min (13,000 g, 4° C.) and the protein concentration was determined by the BCA method. Cytokines in the serum and supernatant of brain were detected according to the manufacturer's instruction. The amount of IL-10, IL-17, IL-1β and IL-6 in each sample in the brain was normalized by its protein content.

Compound: CCCCC(=O)O [valeric acid]
- exercise attenuation of the decrease of intersections among dendritic branches [1]: this attenuation was blocked
- exercise attenuation of the decrease of spine density in the hippocampus [1]: this attenuation was blocked
- performance in novel object recognition test (C57BL/6J mice [2]; 13-week old mice without surgery, intracerebroventricular 4 mg/kg once daily for 4 days (1/50 dose of intraperitoneal injection)): did not affect the performance
- performance in novel object recognition test (C57BL/6J mice [2]; young adult mice with exercise and surgery, valeric acid 200 mg/kg intraperitoneal once a week vs normal saline): abolished
- performance in Barnes maze (C57BL/6J mice [3]): impaired the performance
- C3 in the brain (hippocampus) (C3; 9-week old control mice, intraperitoneal valeric acid vs normal saline): increased
- exercise-induced reduction of C3 in the hippocampus (C3; young adult mice with exercise and surgery, intraperitoneal valeric acid): this reduction was blocked
- IL-17 in the brain (cerebral cortex) (IL-17; mice without MCAO, valeric sodium 100 mg/kg intraperitoneal for 7 days): increase
- IL-17 in the brain (IL-17; young mice with brain ischemia (120-min MCAO), intraperitoneal valeric acid): did not increase
